Laboratory results taken from patent US20240109883A1, “Anti-Tumor Compositions and Methods” (priority 2020, published 2024).

Legend:
Type in all cases: cell-based
MRC5 TOX 7 d = settings: human
cMYC = cMYC Degradation Assay (MDA-MB-231 cells, western blot); settings: 72 hours
Description: MDA-MB-231 cells were seeded in 6-well format in complete growth media containing 10% serum and incubated for 48 h to ensure 100% confluence. Compound was added to cells at 5 μM and 10 μM final concentrations for a treatment period of 72 hours. Cells were harvested in ice-cold IP buffer and lysates were cleared by centrifugation. Total protein concentration was determined for each sample by Bradford assay. Proteins were separated by 10% SDS-PAGE and blotted onto PVDF membranes. Membranes were blocked with CosmoBio PDVF blocking reagent for 1 hour, followed by overnight incubation with cMYC primary antibody (Abcam) at 4 C. After several washes, the membanes were probed with secondary antibody for 1 hour at room temperature. Fluorescent signal was acquired using an Odyssey CLx (LI-COR) and quantified using ImageJ software.

MCF7 cells = assay: MCF7 Cell Growth Inhibition Assay; settings: Homo sapiens, 24 h, 10% serum, DAPI cell count, 4-pt dilution from 10 μM
Description: MCF7 cells were seeded in 96-well plates at 10% confluence 24 h prior to treatment. Compound was added to cells in full growth media containing 10% serum, using a 2-fold, 4-pt dilution scheme beginning from 10 μM (10, 5, 2.5, 1.25 μM). Plates were incubated for 24 h. After treatment, cells were washed, fixed with 4% PFA and stained with DAPI. Plates were imaged using a Cytation 3 plate reader and nuclear DAPI staining was used to quantify cell number. % Growth relative to vehicle-treated (DMSO) control wells was plotted using Excel (See FIGS. 1-8). IC50s were calculated by fitting the data points to the following standard equation:
Growth=1−[Cmpd]^n/(IC50^n+[Cmpd]^n)
where [Cmpd] is the molar concentration of compound, the IC50 is the concentration where half-maximal effect is seen, and n is the Hill coefficient.

[1] = system: human cytomegalovirus (HCMV); assay: Antiviral activity against human cytomegalovirus (HCMV) in MRC5 cells; settings: for IC50 / IC90: Human betaherpesvirus 5, 168 h, MRC5 cells, MOI 0.01 IU per cell, 7 days post infection, mCherry positive cells; for Selectivity Index: SI50: MRC5 TOX 7 d CC50 relative to HCMV IC50
Description: To assess their antiviral activity, some compounds were tested against human cytomegalovirus (HCMV) in vitro. Human MRC5 cells were grown to confluency (˜1.0×10^4 cells/well) in 96-well plate format in Dulbecco's Modified Eagle Medium (DMEM) supplemented with 10% fetal bovine serum (FBS) 2 mM L-glutamine, 0.1 mM non-essential amino acids, 10 mM HEPES, and 100 U/ml each of penicillin and streptomycin and infected with an HCMV variant expressing mCherry tagged pUL99 (the product of late viral UL99 gene) at a multiplicity of 0.01 infectious unit (IU) per cell. Assays were performed in triplicate. One hour later, medium of the cells was replaced with fresh medium containing the indicated compounds at 25, 12.5, 6.25, 3.13, 1.56, 0.78, 0.39 μM or the carrier in which the compounds are dissolved (DMSO). Final concentration of DMSO was 0.5% in each treatment. Virus yield in the culture was determined at 7 days post infection by quantification of fluorescent (mCherry positive) cells in each well by fluorescent microscopy. Results were plotted using CDD Vault (CDD Vault was developed by Collaborative Drug Discovery, Inc., 1633 Bayshore Hwy, Suite 342, Burlingame, CA 94010) in order to calculate IC50s and IC90s.

MRC5 4d Toxicity Assay = settings: human, confluent MRC5 cells, DAPI cell count, read-out: MRC5 4 d Tox: CC50
Description: MRC5 cells were seeded in 96-well plates 1-2 days prior to treatment to ensure 100% confluence. On the day of treatment, cells were washed once and growth media was replaced. Compound (in DMSO) was added to cells using the following dilution scheme: 25, 12.5, 4.16, 1.4, 0.46, 0.15, 0.05 μM. Test concentrations were assayed in duplicate and included 0 μM (DMSO) control wells. Plates were incubated for 4 days. After treatment, cells were washed, fixed with 4% PFA and stained with DAPI. Plates were imaged using a Cytation 3 plate reader and nuclear DAPI staining was used to quantify cell survival. Dose-response plots were generated using CDD Vault to calculate CC50s.

| SMILES | CC50 at 7 d (MRC5 TOX 7 d) [µM] | MDA-MB-231 cMYC: Fold Decrease in Low MW Band at 5 μM (cMYC) [fold] | MDA-MB-231 cMYC: Fold Increase in High MW Band at 5 μM (cMYC) [fold] | MDA-MB-231 cMYC: Fold Decrease in Low MW Band at 10 μM (cMYC) [fold] | MDA-MB-231 cMYC: Fold Increase in High MW Band at 10 μM (cMYC) [fold] | MDA-MB-231 cMYC qualitative degredation (cMYC) | GI50 (MCF7 cells) [µM] | IC50 [1] [µM] | IC90 [1] [µM] | Selectivity Index: SI50 [1] | CC50 at 4 days (MRC5 4d Toxicity Assay) [µM] |
| --- | --- | --- | --- | --- | --- | --- | --- | --- | --- | --- | --- |
| NC(=O)Nc1ccc2c(c1)CN(c1ncc(Cc3ccc(-c4ncccn4)cc3)s1)CC2 [Example 001] | > 10.4 | 0.98 | 0.84 | 1.2 | 1.7 | no degradation | 31.7 | 1.46 | 8.72 | >7.1 | > 25 |
| NC(=O)Nc1ccc2c(c1)CN(c1ncc(Cc3ccc(N4CCS(=O)(=O)CC4)cc3)s1)CC2 [Example 002] | > 50 |  |  |  |  |  |  | 2.59 | 7.58 | >19.3 |  |
| NC(=O)Nc1ccc2c(c1)CN(c1ncc(Cc3ccc(N4CCOC4=O)cc3)s1)CC2 [Example 003] | > 6.77 |  |  |  |  |  | 17.5 | 5.77 | > 6.77 | >1.2 | > 25 |
| CS(=O)(=O)c1ccc(Cc2cnc(N3CCc4ccc(NC(N)=O)cc4C3)s2)cc1 [Example 004] | > 15.8 |  |  |  |  |  | 142 | 5.59 | > 25 | >2.8 | > 25 |
| NC(=O)Nc1ccc2c(c1)CN(c1ncc(Cc3ccc(N4CCOCC4)cc3)s1)CC2 [Example 005] | > 10.4 |  |  |  |  |  |  | 1.43 | 2.92 | >7.3 |  |
| CN1CC(Oc2ccc(Cc3cnc(N4CCc5ccc(NC(N)=O)cc5C4)s3)cc2)C1 [Example 006] | 43.4 |  |  |  |  |  |  | 3.37 | > 50 | 12.9 |  |
| NC(=O)Nc1ccc2c(c1)CN(c1ncc(Cc3ccc(-c4ccco4)cc3)s1)CC2 [Example 007] | > 2.89 | 0.63 | 0.9 | 0.8 | 1.3 | no degradation |  | 1.19 | > 2.89 | >2.4 |  |
| CCOc1ccc(Cc2cnc(N3CCc4ccc(N(C)C(N)=O)cc4C3)s2)cc1 [Example 009] | > 50 |  |  |  |  |  |  | 2.04 | 7.43 | >24.4 |  |
| CN(C(N)=O)c1ccc2c(c1)CN(c1ncc(Cc3ccc(OCC4CC4)cc3)s1)CC2 [Example 010] | 16.9 |  |  |  |  |  |  | 2.44 | 7.97 | 6.9 |  |
| CN(C(N)=O)c1ccc2c(c1)CN(c1ncc(Cc3ccc(-c4ncccn4)cc3)s1)CC2 [Example 011] | > 10.4 | 0.31 | 1.53 | 0.5 | 2.6 | partial |  | 1.48 | > 10.4 | >7.0 |  |
| CN(C(N)=O)c1ccc2c(c1)CN(c1ncc(Cc3ccc(N4CCOCC4)cc3)s1)CC2 [Example 012] | > 50 |  |  |  |  |  |  | 2.13 | > 4.24 | >23.5 |  |
| CNC(=O)N(C)c1ccc2c(c1)CN(c1nnc(Cc3ccc(-n4cccn4)cc3)s1)CC2 [Example 013] | > 50 |  |  |  |  |  |  | 4.27 | 9.25 | >11.7 |  |
| CNC(=O)N(C)c1ccc2c(c1)CN(c1noc(Cc3ccc(-n4cccn4)cc3)n1)CC2 [Example 015] | 44.4 |  |  |  |  |  |  | 2.51 | 5.59 | 17.7 |  |
| NC(=O)Nc1cnc2c(c1)CN(c1ncc(Cc3ccc(-n4cccn4)cc3)s1)CC2 [Example 016] | > 15.8 |  |  |  |  |  |  | 5.25 | > 6.77 | >3.0 |  |
| CCOc1ccc(Cc2cnc(N3CCc4ncc(NC(N)=O)cc4C3)s2)cc1 [Example 017] | 47.3 |  |  |  |  |  |  | 6.46 | 47.5 | 7.3 |  |
| NC(=O)Nc1cnc2c(c1)CN(c1ncc(Cc3ccc(N4CCOCC4)cc3)s1)CC2 [Example 018] | > 50 |  |  |  |  |  |  | 16.1 | 17.7 | >3.1 |  |
| NC(=O)Nc1ccc2c(c1)CN(c1ncc(Cc3ccc(-n4cccn4)cc3)s1)CC2 [Example 019] | > 6.77 | 0.62 | 1.18 | 0.9 | 3.2 | partial | 11 | 0.791 | > 6.61 | >8.6 | > 25 |
| CN(C(N)=O)c1ccc2c(c1)CN(c1ncc(Cc3ccc(-n4cccn4)cc3)s1)CC2 [Example 020] | 3.63 |  |  |  |  |  | 2.3 | 1.24 | 4.7 | 2.9 | > 25 |
| CNC(=O)Nc1ccc2c(c1)CN(c1ncc(Cc3ccc(-n4cccn4)cc3)s1)CC2 [Example 021] | > 2.89 |  |  |  |  |  | 18.3 | 1.17 | > 4.43 | >2.5 | > 25 |
| CN(C)C(=O)Nc1ccc2c(c1)CN(c1ncc(Cc3ccc(-n4cccn4)cc3)s1)CC2 [Example 022] | > 4.43 |  |  |  |  |  | 18.3 | 0.536 | > 4.43 | >8.3 | > 25 |
| CNC(=O)N(C)c1ccc2c(c1)CN(c1ncc(Cc3ccc(-n4cccn4)cc3)s1)CC2 [Example 023] | > 13.6 | 0.04 | 0.22 | 0.0 | 0.2 | total | 1.2 | 0.874 | 2.9 | >15.5 | > 25 |
| CN(C)C(=O)N(C)c1ccc2c(c1)CN(c1ncc(Cc3ccc(-n4cccn4)cc3)s1)CC2 [Example 024] | 21.4 |  |  |  |  |  | 1.8 | 1.14 | 5.31 | 18.7 | > 25 |
